Some results are limits rather than exact numbers.

One assay addresses T1, Human recombinant MMP-14 (Homo sapiens, UniProt P50281).
T1 construct: The catalytic domain enzyme was expressed in E. coli inclusion bodies, solubilized in urea; made in house
Description: In vitro MMP inhibition analysis (fluorogenic peptide substrate cleavage), Ki. Type of assay: biochemical. The conditions noted are these: Table 2. The procedure:
(§1) Several compounds and salts were analyzed in an in vitro assay to determine their ability to inhibit the MMP cleavage of peptide substrates. Inhibition constant (Ki) were calculated from the assayed compound-MMP interactions.
(§2) Human recombinant MMP-1, MMP-2, MMP-9, MMP-13, and MMP-14 were used in this assay. All enzymes were prepared in Assignee's laboratories following usual laboratory procedures. Protocols for the preparation and use of these enzymes are available in the scientific literature. See, e.g., Enzyme Nomenclature (Academic Press, San Diego, Calif., 1992) (and the citations therein). See also, Frije et al., J. Biol. Chem., 26(24), 16766-73 (1994).
The MMP-14 full length cDNA was provided by Dr. Gregory Goldberg of Washington University (St. Louis, Mo.). The catalytic domain enzyme was expressed in E. coli inclusion bodies, solubilized in urea, purified on a preparative […] reverse phase HPLC column, and then refolded in the presence of zinc acetate and purified for use.
(§3) All MMPs were activated using 4-aminophenylmercuric acetate (“APMA”, Sigma Chemical, St. Louis, Mo.) or trypsin. MMP-9 also was activated using human recombinant MMP-3 (purified in Assignee's laboratory following standard cloning and purification techniques).
(§4) The following fluorogenic, methoxycoumarin-containing polypeptide substrate (I) was used in the MMP inhibition assays: MCA-ArgProLeuGlyLeuDpaAlaArgGluArgNH2 (I) “MCA” is 7-methoxycoumarin-4-yl acetyl. Substrate (I) was prepared Assignee's laboratory. In the absence of MMP inhibitory activity, the substrate is cleaved at the Gly-Leu peptide bond. This cleavage separates the highly fluorogenic peptide from the 2,4-dinitrophenyl quencher, thus resulting in increase of fluorescent intensity.
(§5) The stock solutions of the assayed compounds and salts were prepared in […] (DMSO). These stock solutions were diluted in Buffer A (100 mM Tris-HCl, 100 mM NaCl, 10 mM CaCl2, 0.05% polyoxyethylene 23 lauryl ether, pH 7.5) to obtain solutions with different compound concentrations, i.e., assay solutions with different concentrations of the assayed […] compound. The experiment controls contained the same amount of Buffer A/DMSO as the assayed sample, but contained none of the tested compound or salt.
(§6) The assays from which the Ki determinations were made were performed as follows. The assayed compound samples were incubated in separate wells of untreated white polystyrene plates (Nunc Nalgene International, Rochester, N.Y.), and analyzed on a Tecan SpectraFlour Plus plate reader. The excitation wavelength was 330 nm, and the emission wavelength—420 nm. All samples (assayed compounds and controls) were incubated in separate plate wells at room temperature for 1 hr in the presence of 4 μM of MMP substrate (I). In the absence of MMP inhibitory activity, substrate (I) was cleaved at the Gly-Leu bond resulting in an increase of relative fluorescence. Inhibition was observed as a reduced rate of this increase in relative fluorescence. […] This protocol is a modification of method by Knight et al., FEBS Lett., 296(3), 263-266 (1992). Apparent inhibitory constants were determined by non-linear regression of reaction velocity as a function of inhibitor and enzyme concentration using Morrison's equation, as described by Kuzmic, Anal. Biochem. 286, 45-50 (2000). Modifications were made in the non-linear regression method to allow a common control reaction rate and effective enzyme concentration to be shared between all dose-response relationships on a given assay plate. Since the substrate concentration was chosen to be at or below the Km, the apparent Ki's from this analysis were reported as Ki's without correction for the influence of substrate.
The above protocols were used to determine Ki constants for the compounds in Examples 2-35 above. All Ki values in Table 1 are given in nM units.

A further assay has as its target T2, Human recombinant MMP-13 (Homo sapiens, UniProt P45452).
T2 construct: made in house; host or cells: baculovirus / insect cells
The assay is described as above. Type of assay: biochemical. To be noted: Table 2. The procedure: as §1, §2
The MMP-13 was obtained as a proenzyme from a full-length cDNA clone using baculovirus, as described by V. A. Luckow, “Insect Cell Expression Technology,” Protein Engineering: Principles and Practice, pp. 183-218 (edited by J. L. Cleland et al., Wiley-Liss, Inc., 1996). The expressed proenzyme was first purified over a heparin agarose column, and then over a chelating zinc chloride column. The proenzyme was then activated by APMA for use in the assay. Further details on baculovirus expression systems may be found in, for example, Luckow et al., J. Virol., 67, 4566-79 (1993). See also, O'Reilly et al, Baculovirus Expression Vectors: A Laboratory Manual (W.H. Freeman and Co., New York, N.Y., 1992). See also, King et al., The Baculovirus Expression System: A Laboratory Guide (Chapman & Hall, London, England, 1992).
as §3, §4, §5
as §6, with “Modifications were made in the non-linear regression method to allow a common control reaction rate and effective enzyme concentration to be shared between all dose-response relationships on a given assay plate. Since the substrate concentration was chosen to be at or below the Km, the apparent Ki's from this analysis were reported as Ki's without correction for the influence of substrate.” left out

Turning to `O=C(NO)C1(S(=O)(=O)c2ccc(-c3ccc(-c4ccccc4)cn3)cc2)CCN(C2CC2)CC1` [Example 151], the inhibition constant (Ki) was 120 nM at Human recombinant MMP-14 and 0.05 nM on Human recombinant MMP-13.

Consider `COCCN1CCC(C(=O)NO)(S(=O)(=O)c2ccc(-c3ccc(-c4ccccc4)cc3)cc2)CC1` [Example 152], for which the Ki was found to be 144 nM at Human recombinant MMP-14 and 0.05 nM on Human recombinant MMP-13.

As to `O=C(NO)C1(S(=O)(=O)c2ccc(-c3ccc(-c4ccccc4)cc3)cc2)CCN(C2CC2)CC1` [Example 153], the Ki at Human recombinant MMP-14 came out at 205 nM; on Human recombinant MMP-13 it was 0.15 nM.

Regarding `O=C(NO)C1(S(=O)(=O)c2ccc(-c3cnc(OCC(F)(F)C(F)(F)F)cn3)cc2)CCOCC1` [Example 154], the inhibition constant (Ki) on Human recombinant MMP-14 was 493 nM; on Human recombinant MMP-13 it was 0.12 nM.

For `CCN1CCC(C(=O)NO)(S(=O)(=O)c2ccc(-c3ccc(-c4csc(C)n4)cc3)cc2)CC1` [Example 155], the Ki on Human recombinant MMP-14 was determined as 283 nM; on Human recombinant MMP-13, 0.17 nM.

For the compound `O=C(NO)C1(S(=O)(=O)c2ccc(-c3cnc(OCC(F)(F)C(F)(F)F)cn3)cc2)CCN(C2CC2)CC1` [Example 156], the results for the inhibition constant Ki at Human recombinant MMP-14 and at Human recombinant MMP-13 were 1140 nM and 0.31 nM, respectively.

With `COCCN1CCC(C(=O)NO)(S(=O)(=O)c2ccc(-c3cnc(OCC(F)(F)C(F)(F)F)cn3)cc2)CC1` [Example 157], the results for the inhibition constant (Ki) on Human recombinant MMP-14 and on Human recombinant MMP-13 were 1220 nM and 0.26 nM, respectively.

In the case of `O=CN1CCC(C(=O)NO)(S(=O)(=O)c2ccc(-c3ccc(CCCC(F)(F)F)cn3)cc2)CC1` [Example 159], the Ki at Human recombinant MMP-14 is 599 nM; at Human recombinant MMP-13, 0.02 nM.

`O=C(NO)C1(S(=O)(=O)c2ccc(-c3cnc(-c4cccs4)cn3)cc2)CCOCC1` [Example 160]: the Ki on Human recombinant MMP-14 was > 10000 nM; at Human recombinant MMP-13, 0.7 nM.

For the compound `O=C(NO)C1(S(=O)(=O)c2ccc(-c3ccc(CCC(F)(F)F)cc3)cc2)CCOCC1` [Example 161], the inhibitory constant (Ki) at Human recombinant MMP-14 is 303 nM; at Human recombinant MMP-13, 0.07 nM.

Turning to `O=C(NO)C1(S(=O)(=O)c2ccc(-c3cnc(C4CCCC4)cn3)cc2)CCOCC1` [Example 162], the inhibitory constant (Ki) on Human recombinant MMP-14 turned out to be 7350 nM; at Human recombinant MMP-13 it was 0.95 nM.

With `CCOc1ccc(-c2ccc(S(=O)(=O)C3(C(=O)NO)CCOCC3)cc2)cc1` [Example 163], the Ki on Human recombinant MMP-14 worked out at 56.7 nM; at Human recombinant MMP-13 it was 0.011 nM.

Regarding `COCC#Cc1cnc(-c2ccc(S(=O)(=O)C3(C(=O)NO)CCOCC3)cc2)cn1` [Example 164], the Ki at Human recombinant MMP-14 amounted to 152 nM; at Human recombinant MMP-13 it was 0.09 nM.

The values above are taken from patent US20060074243A1, “Hydroxamic acid and amide compounds and their use as protease inhibitors” (Pharmacia Corporation, priority 2002, published 2006).
